Data taken from patent publication US9994570B2, “Bridged diazepane orexin receptor antagonists” (MERCK SHARP & DOHME CORP., priority 2014, dated 2018).

Legend:
[1] = biological target: T1, rat orexin-1 receptor (Rattus norvegicus, UniProt P56718); test: FLIPR Ca2+ flux assay, OX1R; assay type: cell-based; details: CHO cells expressing the rat orexin-1 receptor; agonist 70 pM Ala-6,12 orexin-A
T1 construct: expressed in transfected cells; host or cells: CHO cells (grown under G418 selection)
T1 sequence (P56718 1-416): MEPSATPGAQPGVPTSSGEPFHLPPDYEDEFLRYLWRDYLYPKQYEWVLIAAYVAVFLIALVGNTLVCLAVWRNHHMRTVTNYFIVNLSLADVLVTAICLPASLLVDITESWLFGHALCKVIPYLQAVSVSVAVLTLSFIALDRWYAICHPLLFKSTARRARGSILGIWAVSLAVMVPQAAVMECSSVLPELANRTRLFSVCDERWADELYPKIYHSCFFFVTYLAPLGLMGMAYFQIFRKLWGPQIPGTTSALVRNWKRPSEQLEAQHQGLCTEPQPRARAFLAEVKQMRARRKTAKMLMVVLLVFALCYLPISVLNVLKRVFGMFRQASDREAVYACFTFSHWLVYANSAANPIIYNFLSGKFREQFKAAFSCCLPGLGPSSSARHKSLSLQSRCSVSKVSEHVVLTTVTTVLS
Description: (§1) The utility of the compounds in accordance with the present invention as orexin receptor OX1R and/or OX2R antagonists may be readily determined without undue experimentation by methodology well known in the art, including the “FLIPR Ca^2+ Flux Assay” (Okumura et al., Biochem. Biophys. Res. Comm. 280:976-981, 2001). In a typical experiment the OX1 and OX2 receptor antagonistic activity of the compounds of the present invention was determined in accordance with the following experimental method. For intracellular calcium measurements, Chinese hamster ovary (CHO) cells expressing the rat orexin-1 receptor or the human orexin-2 receptor, are grown in Iscove's modified DMEM containing 2 mM L-glutamine, […], 1% hypoxanthine-thymidine supplement, 100 U/ml penicillin, 100 μg/ml streptomycin and 10% heat-inactivated fetal calf serum (FCS). The cells are seeded at 20,000 cells/well into Becton-Dickinson black 384-well clear bottom sterile plates coated with poly-D-lysine. All reagents were from GIBCO-Invitrogen Corp. The seeded plates are incubated overnight at 37° C. and 5% CO2. Ala-6,12 human orexin-A as the agonist is prepared as a 1 mM stock solution in 1% bovine serum albumin (BSA) and diluted in assay buffer (HBSS containing 20 mM HEPES, 0.1% BSA and 2.5 mM probenecid, pH7.4) for use in the assay at a final concentration of 70 pM. Test compounds are prepared as 10 mM stock solution in DMSO, then diluted in 384-well plates, first in DMSO, then assay buffer. On the day of the assay, cells are washed 3 times with 100 μl assay buffer and then incubated for 60 min (37° C., 5% CO2) in 60 μl assay buffer containing 1 μM Fluo-4AM ester, 0.02% pluronic acid, and 1% BSA. The dye loading solution is then aspirated and cells are washed 3 times with 100 μl assay buffer. 30 μl of that same buffer is left in each well. Within the Fluorescent Imaging Plate Reader (FLIPR, Molecular Devices), test compounds are added to the plate in a volume of 25 μl, incubated for 5 min and finally 25 μl of agonist is added. Fluorescence is measured for each well at 1 second intervals for 5 minutes and the height of each fluorescence peak is compared to the height of the fluorescence peak induced by 70 pM Ala-6,12 orexin-A with buffer in place of antagonist. For each antagonist, IC50 value (the concentration of compound needed to inhibit 50% of the agonist response) is determined. Alternatively, compound potency can be assessed by a radioligand binding assay (described in Bergman et. al. Bioorg. Med. Chem. Lett. 2008, 18, 1425-1430) in which the inhibition constant (Ki) is determined in membranes prepared from CHO cells expressing either the OX1 or OX2 receptor. The intrinsic orexin receptor antagonist activity of a compound which may be used in the present invention may be determined by these assays.

[2] = biological target: T2, human orexin-2 receptor (Homo sapiens, UniProt O43614); test: FLIPR Ca2+ flux assay, OX2R; assay type: cell-based; details: for IC50: CHO cells expressing the human orexin-2 receptor, agonist 70 pM Ala-6,12 orexin-A; for Fold Selective: OX1R FLIPR / OX2R FLIPR
T2 construct: expressed in transfected cells; host or cells: CHO cells (grown under G418 selection)
T2 sequence (O43614 1-444): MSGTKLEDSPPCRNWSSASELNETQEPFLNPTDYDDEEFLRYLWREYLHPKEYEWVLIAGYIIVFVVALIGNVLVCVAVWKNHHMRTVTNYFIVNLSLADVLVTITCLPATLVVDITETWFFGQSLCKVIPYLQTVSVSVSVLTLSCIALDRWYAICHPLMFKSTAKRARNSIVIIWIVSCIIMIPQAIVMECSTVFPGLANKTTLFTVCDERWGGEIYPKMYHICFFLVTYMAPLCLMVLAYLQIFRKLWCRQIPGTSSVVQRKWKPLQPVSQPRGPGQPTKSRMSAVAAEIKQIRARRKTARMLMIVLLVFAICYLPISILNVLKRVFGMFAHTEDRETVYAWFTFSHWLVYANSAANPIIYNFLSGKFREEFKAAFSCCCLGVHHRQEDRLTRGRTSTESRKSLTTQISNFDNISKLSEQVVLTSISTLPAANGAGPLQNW
Description: as §1

| IC50 [1] | IC50 [2] | Fold Selective [2] | SMILES |
| --- | --- | --- | --- |
| 1140 nM | 10 nM | 114 | Cc1cc(C)nc(N2CC3CC2CN(C(=O)c2ccccc2OCC(F)(F)F)C3)n1 (stereo not drawn) [Example 26, 6-(4,6-dimethylpyrimidin-2-yl)-3-{[2-(2,2,2-trifluoroethoxy)-phenyl]carbonyl}-3,6-diazabicyclo[3.2.1]octane] |
| 628 nM | 15 nM | 42 | Cc1cc(C)nc(N2CC3CC2CN(C(=O)c2cccnc2OCC2CCC2)C3)n1 (stereo not drawn) [Example 42, 3-{[2-(cyclobutylmethoxy)pyridin-3-yl]carbonyl}-6-(4,6-dimethylpyrimidin-2-yl)-3,6-diazabicyclo[3.2.1]octane] |
| 1080 nM | 23 nM | 47 | Cc1cc(C)nc(N2CC3CC2CN(C(=O)c2cccnc2OC2CCCC2)C3)n1 (stereo not drawn) [Example 38] |
| 932 nM | 21 nM | 44 | Cc1cc(C)nc(N2CC3CC2CN(C(=O)c2cccnc2OCCC(F)(F)F)C3)n1 (stereo not drawn) [Example 44, 6-(4,6-dimethylpyrimidin-2-yl)-3-{[2-(3,3,3-trifluoropropoxy)pyridin-3-yl]carbonyl}-3,6-diazabicyclo[3.2.1]octane] |
| 1370 nM | 13 nM | 106 | Cc1cc(C)nc(N2CC3CC2CN(C(=O)c2cccnc2OCC2CC2)C3)n1 (stereo not drawn) [Example 39, 3-{[2-(cyclopropyl-methoxy)pyridin-3-yl]carbonyl}-6-(4,6-dimethylpyrimidin-2-yl)-3,6-diazabicyclo-[3.2.1]octane] |
| 584 nM | 12 nM | 49 | Cc1cc(C)nc(N2CC3CC2CN(C(=O)c2cccnc2OCC2CC2(F)F)C3)n1 (stereo not drawn) [Example 41, 3-({2-[(2,2-difluorocyclopropyl)methoxy]pyridin-3-yl}carbonyl)-6-(4,6-dimethylpyrimidin-2-yl)-3,6-diazabicyclo[3.2.1]octane] |
| 3990 nM | 44 nM | 91 | COCCc1ccccc1C(=O)N1CC2CC(C1)N(c1nc(C)cc(C)n1)C2 (stereo not drawn) [Example 33, 6-(4,6-dimethylpyrimidin-2-yl)-3-{[2-(2-methoxyethyl)-phenyl]carbonyl}-3,6-diazabicyclo[3.2.1]octane] |
| 2680 nM | 24 nM | 112 | Cc1cc(C)nc(N2CC3CC2CN(C(=O)c2ccccc2OC(F)F)C3)n1 (stereo not drawn) [Example 34, 3-{[2-(difluoromethoxy)phenyl]carbonyl}-6-(4,6-dimethylpyrimidin-2-yl)-3,6-diazabicyclo[3.2.1]octane] |
| 1180 nM | 14 nM | 84 | CCCc1ccccc1C(=O)N1CC2CC(C1)N(c1nc(C)cc(C)n1)C2 (stereo not drawn) [Example 27, 6-(4,6-dimethylpyrimidin-2-yl)-3-[(2-propylphenyl)carbonyl]-3,6-diazabicyclo[3.2.1]octane] |
| > 10000 nM | 90 nM | >111 | CO[C@@H]1CCN(c2ncccc2C(=O)N2CC3CC(C2)N(c2nc(C)cc(C)n2)C3)C1 (stereo partly drawn) [Example 46, (6-(4,6-dimethylpyrimidin-2-yl)-3,6-diazabicyclo[3.2.1]octan-3-yl)(2-((R)-3-methoxypyrrolidin-1-yl)pyridin-3-yl)methanone] |

The remaining lines, values behind:

| SMILES | IC50 [1] | IC50 [2] | Fold Selective [2] |
| --- | --- | --- | --- |
| Cc1cc(C)nc(N2CC3CC2CN(C(=O)c2cc(F)cnc2C2CC2)C3)n1 (stereo not drawn) [Example 8] | 5860 nM | 29 nM | 202 |
| Cc1cc(C#N)nc(N2CC3CC2CN(C(=O)c2ccccc2CC(F)(F)F)C3)n1 (stereo not drawn) [Example 1, 6-methyl-2-(3-(2-(2,2,2-trifluoroethyl)benzoyl)-3,6-diazabicyclo[3.2.1]octan-6-yl)pyrimidine-4-carbonitrile] | 1870 nM | 23 nM | 81 |
| Cc1cc(C)nc(N2CC3CC2CN(C(=O)c2ccccc2OC(F)(F)F)C3)n1 (stereo not drawn) [Example 15, 6-(4,6-dimethylpyrimidin-2-yl)-3-{[2-(trifluoromethoxy)-phenyl]carbonyl}-3,6-diazabicyclo[3.2.1]octane] | 1530 nM | 30 nM | 51 |
| Cc1cc(C#N)nc(N2CC3CC2CN(C(=O)c2ccccc2CS(C)(=O)=O)C3)n1 (stereo not drawn) [Example 7, 6-methyl-2-(3-(2-((methylsulfonyl)methyl)benzoyl)-3,6-diazabicyclo[3.2.1]octan-6-yl)pyrimidine-4-carbonitrile] | > 10000 nM | 61 nM | >164 |
| Cc1cc(C)nc(N2CC3CC2CN(C(=O)c2cccnc2OCC(F)(F)F)C3)n1 (stereo not drawn) [Example 22, 6-(4,6-dimethylpyrimidin-2-yl)-3-{[2-(2,2,2-trifluoroethoxy)pyridin-3-yl]carbonyl}-3,6-diazabicyclo[3.2.1]octane] | 1040 nM | 13 nM | 80 |
| Cc1cc(C)nc(N2CC3CC2CN(C(=O)c2ccccc2C2(F)CC2)C3)n1 (stereo not drawn) [Example 18, 6-(4,6-dimethylpyrimidin-2-yl)-3-{[2-(1-fluorocyclopropyl)-phenyl]carbonyl}-3,6-diazabicyclo[3.2.1]octane] | 872 nM | 15 nM | 58 |
| Cc1cc(C#N)nc(N2CC3CC2CN(C(=O)c2cccnc2OCC(F)F)C3)n1 (stereo not drawn) [Example 4, 2-(3-{[2-(2,2-difluoroethoxy)pyridin-3-yl]carbonyl}-3,6-diazabicyclo[3.2.1]oct-6-yl)-6-methylpyrimidine-4-carbonitrile] | 3300 nM | 19 nM | 174 |
| Cc1cc(C#N)nc(N2CC3CC2CN(C(=O)c2cccnc2C2CC2)C3)n1 (stereo not drawn) [Example 5, 2-(3-(2-cyclopropylnicotinoyl)-3,6-diazabicyclo[3.2.1]octan-6-yl)-6-methylpyrimidine-4-carbonitrile] | > 10000 nM | 81 nM | >123 |
| Cc1cc(C)nc(N2CC3CC2CN(C(=O)c2cccnc2OCC(F)F)C3)n1 (stereo not drawn) [Example 9, (2-(2,2-difluoroethoxy)pyridin-3-yl)(6-(4,6-dimethylpyrimidin-2-yl)-3,6-diazabicyclo[3.2.1]octan-3-yl)methanone] | 1830 nM | 15 nM | 122 |
| Cc1cc(C)nc(N2CC3CC2CN(C(=O)c2nccnc2-n2cccn2)C3)n1 (stereo not drawn) [Example 20, 6-(4,6-dimethylpyrimidin-2-yl)-3-{[3-(1H-pyrazol-1-yl)pyrazin-2-yl]carbonyl}-3,6-diazabicyclo[3.2.1]octane] | 3400 nM | 50 nM | 68 |
| Cc1cc(C#N)nc(N2CC3CC2CN(C(=O)c2ccccc2OC(F)F)C3)n1 (stereo not drawn) [Example 2, 2-(3-(2-(difluoromethoxy)benzoyl)-3,6-diazabicyclo[3.2.1]-octan-6-yl)-6-methylpyrimidine-4-carbonitrile] | > 10000 nM | 46 nM | >217 |
